# Assay results: patent US12534748B2, “Engineered beta-subunit of tryptophan synthase for production of non-canonical amino acids” (California Institute of Technology, priority 2015, dated 2026)
# Positions count from the first letter of the chain named. Values joined by “and” are separate entries in the source; they are usually repeats but may differ in a detail not shown here. Equal entries are not always repeated.
# Key:
# [1] = molecular target: T1, Thermotoga maritima TrpB variant TmTrpB^0B2 (P14L, P19G, I69V, L274S, T292S) (Thermotoga maritima, UniProt P50909, I69V/L274S/P14L/P19G/T292S); assay: Tryptophan formation from L-serine and indole, kinetics of TmTrpB^0B2
# T1 sequence (P50909 with tags, fused parts or gaps P14L/P19G/I69V/L274S/T292S): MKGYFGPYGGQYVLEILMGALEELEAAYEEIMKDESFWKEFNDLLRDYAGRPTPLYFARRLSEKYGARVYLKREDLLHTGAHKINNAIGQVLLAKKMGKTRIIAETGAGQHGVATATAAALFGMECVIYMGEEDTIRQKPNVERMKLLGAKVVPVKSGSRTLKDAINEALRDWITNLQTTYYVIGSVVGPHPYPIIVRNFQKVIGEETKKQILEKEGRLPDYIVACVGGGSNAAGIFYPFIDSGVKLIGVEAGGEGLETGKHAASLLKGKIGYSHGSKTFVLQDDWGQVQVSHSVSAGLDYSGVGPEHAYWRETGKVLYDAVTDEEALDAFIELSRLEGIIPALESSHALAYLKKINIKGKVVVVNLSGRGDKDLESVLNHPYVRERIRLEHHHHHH
# Excerpt: (§1) Kinetics and UV-Vis Spectroscopy.
# Cloning, expression, and purification of the different orthologs.
# The next homolog, TmTrpB, was examined.
# [2] = molecular target: T2, Pyrococcus furiosus tryptophan synthase beta-subunit PfTrpB, wild type, SEQ ID NO: 2 (Pyrococcus furiosus, UniProt Q8U093); assay: Tryptophan formation from L-serine and indole, kinetics of wild-type PfTrpB; format: biochemical; conditions: 75° C., pH 8.0, Trp formation at 290 nm
# T2 sequence (Q8U093 with tags, fused parts or gaps): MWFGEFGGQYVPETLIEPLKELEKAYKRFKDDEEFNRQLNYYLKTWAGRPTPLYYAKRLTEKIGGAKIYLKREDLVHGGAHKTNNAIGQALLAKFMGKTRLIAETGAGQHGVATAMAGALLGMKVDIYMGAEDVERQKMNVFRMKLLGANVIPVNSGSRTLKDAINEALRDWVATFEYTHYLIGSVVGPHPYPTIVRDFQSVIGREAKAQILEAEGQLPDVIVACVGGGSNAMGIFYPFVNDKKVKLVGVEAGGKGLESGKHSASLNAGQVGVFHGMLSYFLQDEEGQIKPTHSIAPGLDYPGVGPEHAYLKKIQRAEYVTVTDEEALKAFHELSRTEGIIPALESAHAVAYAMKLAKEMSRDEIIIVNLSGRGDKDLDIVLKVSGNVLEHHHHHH
# Protocol: (§2) Cloning, Expression, and Purification of PfTrpA and PfTrpB. The genes encoding PfTrpB (UNIPROT ID Q8U093) and PfTrpA (UNIPROT ID Q8U094) were obtained as gBlocks and cloned into pET22(b)+ for expression in E. coli BL21 E. cloni EXPRESS cells (Lucigen). Heterologous protein expression of PfTrpA and PfTrpB was performed in Terrific Broth with 100 μg/mL ampicillin (TBamp) and induced with 500 mM IPTG (final concentration 1 mM). PfTrpB was purified via a HisTrap HP column. PfTrpA was purified via a Q HP HiTrap column (flow-through), followed by ammonium sulfate precipitation, and hydrophobic interaction chromatography on a phenyl Sepharose HP HiTrap column (FIG. 3).
# Kinetics and UV-Vis Spectroscopy. Data were collected between 550 and 250 nm on a UV1800 Shimadzu spectrophotometer (Shimadzu) using 0.25-20 μM of enzyme in 200 mM potassium phosphate (pH 8.0) in a quartz cuvette. Samples were incubated at 75° C. for >3 min to ensure a stable temperature was reached. PfTrpB activity (kcat) was measured by monitoring tryptophan formation at 290 nm using Δe290=1.89 mM^−1·cm^−1.
# Selection of the Parent Enzyme, TrpB, from Pyrococcus furiosus. […]
# [3] = molecular target: T3, Pyrococcus furiosus TrpB variant PfTrpB^0B2 (P12L, E17G, I68V, T292S, F274S, T321A), SEQ ID NO: 12 (Pyrococcus furiosus, UniProt Q8U093, E17G/F274S/I68V/P12L/T292S/T321A); assay: Tryptophan formation from L-serine and indole, kinetics of PfTrpB^0B2
# T3 sequence (Q8U093 with tags, fused parts or gaps P12L/E17G/I68V/F274S/T292S/T321A): T2 sequence (Q8U093 with tags, fused parts or gaps) with P12L, E17G, I68V, F274S, T292S, T321A
# Protocol: as §2, §1
# PfTrpB^4D11 served as template for a final round of random mutagenesis, for which 1,144 clones were screened.
compound,measurement,setting,value
c1ccc2[nH]ccc2c1 [indole],kcat,[1]; 75° C.,0.11 s⁻¹
same,kcat relative to wild-type activity,[1]; of the wild-type activity,10%
same,kcat,[2],0.31 s⁻¹ and 0.31 ± 0.02 s⁻¹
same,kcat,[3]; 75° C.,2.9 s⁻¹
same,kcat increase,[3]; relative to PfTrpB,9.4 fold
